Bridges are numbered along the chain shown (N, C = ends). Where no end group is shown, it is not given here.
Test system: donor lung of a pig
Experiment: Ex vivo lung perfusion (EVLP) of pig donor lungs simulating lung transplantation
Experimental: Brain-dead pigs were brought into back position and a vertical sternotomy was carried out. The pericardium and both pleural cavities were opened. The lower and upper cavial venes were embraced. An inflow catheter was inserted into the lung artery by means of a purse-string suture in the right ventricular discharging tract. An inflow occlusion was obtained by connecting the lower and upper cavial venes, discharge occlusion by stapling off the aorta. The lungs then were protected by a prophylactic rinsing with cold, isotonic conservation solution (50 ml per kg body weight of the pig, comprising potassium ions, sodium ions, magnesium ions, calcium ions, chloride ions, dextran, glucose, buffer ions) through the inflow catheter. Incision of the left heart tube yields discharge. The lungs were aerated during that time period with 50% oxygen and ice sludge was given into both pleural cavities and into the mediastinum.
The explanation technique in sum was the removal with heart and esophagus according to the following steps: • a) Dissection of the soft tissue bridges to the thoracic cavity at both sides of the trachea. • b) Transsection of both pulmonal ligaments (very deep, difficult exposure), then of VCI, of the low thoracic aorta ascendens, or the esophagus, respectively. • c) Blunt-separation of residual mediastinal adhesions. • d) Entire distension of the donor lung before the tracheal closure with a clip.
After explantation the lungs were winded into gauze, put into an ice bag, filled with low-potassium-dextran-extracellular solution and stored at 4° C. for 18 to 24 hours.
For the ex-vivo lung conditioning the EVLP-technique was used ([…]). […] During the EVLP the lung function may be assessed regularly regarding key indicators. […]
The processing of the donor lung from the pig was started with sewing on a funnel-shaped tube from Silastic with a pressure-monitored catheter, implemented into the left atrial cuff (LA), for openly splinting the LA and for maintaining a closed perfusion circulation. […]

[1] = inhalation 1 mg/kg, vs Water for Injection

| Compound | effects regarding the lung | arterio-venous pO2 difference ΔpO2 [1] | dynamic lung conformity (compliance) [1] |
| --- | --- | --- | --- |
| Cyclo(CGQREAPAGAAAKPWYC) (disulfide 1-17) [SEQ ID NO: 7, reference compound] | no improving effects | – | – |
| C[C@@H]1NC(=O)CNC(=O)[C@H](CCC(=O)O)NC(=O)[C@@H]2CCCN2C(=O)[C@H]([C@@H](C)O)NC(=O)[C@H](CCC(=O)O)NC(=O)[C@H](CCCNC(=N)N)NC(=O)[C@H](CCC(N)=O)NC(=O)CNC(=O)[C@@H](N)CSSC[C@@H](C(=O)O)NC(=O)[C@H](Cc2ccc(O)cc2)NC(=O)[C@H](Cc2c[nH]c3ccccc23)NC(=O)[C@@H]2CCCN2C(=O)[C@H](CCCCN)NC(=O)[C@H](C)NC(=O)[C@H](CCC(=O)O)NC1=O [SEQ ID NO: 1] | – | improved | improved |

From patent US10711041B2, “Lyophilisate containing a cyclic peptide of formula X1-[sequence]-X2” (priority 2013, dated 2020)
